pIC50: −log10 of the molar value.
System: Human pancreatic cancer cells PC1.0
Experiment: cells
Settings: light or radiation study
Description: Human pancreatic cancer cells PC1.0 were plated in 96 well culture plate at 1000 cells/well and cultured overnight. Then, methylene blue (MB) or SMA-methylene blue (SMA-MB) micelle was added to the cultured cells above, and allowed to culture another 48 hours. Light irradiation was carried out using tungsten xenon lamp at 15 cm distance from the cell surface for 20 min. Then, the survival rate of the cells was quantified by MTT Method.

- pIC50: 6.30
- pIC50 (48 h): 5.35
SMILES: CN(C)c1ccc2nc3ccc(=[N+](C)C)cc-3sc2c1 [Methylene blue, methylene blue]

From patent US10946109B2, “Polymer-type fluorescent molecule probe” (HIROSHI MAEDA, priority 2011, dated 2021)
